Results from paper PMC9822434, “Estradiol-Based Salicylaldehyde (Thio)Semicarbazones and Their Copper Complexes with Anticancer, Antibacterial and Antioxidant Activities” (Molecules, 2022).
Converted amounts (≈) assume the structure as drawn. Where two headings read alike, the source gives them in different places.

Assays:
S. aureus ATCC 25928 = experiment: MIC determination; type: cell-based, Staphylococcus aureus; details: Gram-positive S. aureus ATCC 25928, Mueller Hinton Broth
Method: (§1) Klebsiella pneumoniae (ATCC 49619), Escherichia coli (ATCC 25922), Staphylococcus aureus (ATCC 25928) and Enterococcus faecalis (ATCC 29212) strains were used as Gram-negative and Gram-positive bacterial cultures. The stock solutions of the tested compounds (dissolved in 90% (v/v) DMSO/H2O at 10 mM concentration) were diluted in 100 μL of Mueller Hinton Broth, and then two-fold serial dilutions were performed. As a starting point, 100 μM concentration of the compounds was used. Then, 10^−4 dilution of an overnight bacterial culture in 100 μL of medium was added to each well, with the exception of the medium control wells. Minimum inhibitory concentration (MIC) values of compounds were determined according to our previous work.

A549 = experiment: MTT cytotoxicity assay; type: cell-based, human; details: for IC50: 24 h incubation time; for effect on cell viability (in words): up to 20 µM, 24 h
Method: (§2) To test the biological effects of the Cu(II) complexes and the ligands on human cancer cells, DU-145 prostate, A549 lung, and MCF-7 breast adenocarcinoma cells, as well as the multidrug-resistant MCF-7 KCR breast cancer cells were utilized. All the cell lines were maintained in RPMI-1640 media (Biosera, Nuaille, France) complemented with 10% fetal bovine serum (FBS), 2 mM L-glutamine, 0.01% streptomycin and 0.005% penicillin, (Biosera, Nuaille, France) and were cultured under standard conditions in a 37 °C incubator at 5% CO2 and 95% humidity. The cell lines were originally obtained from ATCC.
(§3) The effect of the complexes and of their ligands alone on the viability (on the metabolic activity) of human cancer cells was assessed by MTT assay. The tested compounds were dissolved in 90% (v/v) DMSO/H2O at 10 mM concentration. Equimolar solutions of the ligand CuCl2 salt were used for the cytotoxicity assays. The metal salts without ligands were also tested. For this, 1 × 10^4 cells/well were seeded into 96-well plates and left to grow overnight. On the following day, cells were exposed to increasing concentrations of each compound (0; 2.5; 5; 10; 15; 20 µM). After a 24 h incubation, cells were washed with PBS buffer and then incubated with 0.5 mg/mL MTT (Sigma-Aldrich, St Louis, Missouri, MO, USA) for 1 h at 37 °C. The formazan crystals were solubilized in DMSO (Molar Chemicals, Halásztelek, Hungary), and the absorbance of samples was determined at 570 nm using a Synergy HTX plate reader (BioTek, Winooski, Vermont, VT, USA). Absorption corresponding to the untreated control samples was considered as 100%.

MCF-7 KCR = experiment: MTT cytotoxicity assay; type: cell-based, human; details: for effect on cell viability (in words): up to 20 µM, 24 h
Method: as §2, §3

DU-145 = experiment: MTT cytotoxicity assay; type: cell-based, human; details: DU-145, MTT; for IC50: 24 h incubation time; for effect on cell viability (in words): up to 20 µM, 24 h
Method: as §2, §3

MCF-7 = experiment: MTT cytotoxicity assay; type: cell-based, human; details: MCF-7, MTT; for IC50: 24 h incubation time; for effect on cell viability (in words): up to 20 µM, 24 h
Method: as §2, §3

[1] = test system: A549, MCF-7, MCF-7 KCR and DU-145 cells; experiment: γH2AX immunostaining (DNA double-strand breaks); type: cell-based, human; details: 20 µM, 3 h
Method: In order to determine the degree of DNA damage induced by the treatments, DNA double-strand breaks were visualized by γH2AX immunostaining. For this, 1 × 10^5 cells/well were seeded onto coverslips in 24-well plates. […] Then, cells were fixed with 4% formaldehyde (Molar Chemicals, Halásztelek, Hungary), permeabilized with 0.3% Triton-X-100 (Calbiochem, Merck Millipore, Darmstadt, Germany) and were blocked using 5% bovine serum albumin (BSA) (Sigma-Aldrich, St. Louis, MO, USA). Then, the samples were incubated with anti-γH2AX antibody (Thermo Fisher Scientific, Waltham, MA, USA) in 1:300 dilution followed by Alexa 488 fluorophore-conjugated goat anti-mouse secondary antibody (Abcam, Cambridge, UK) in 1:600 dilution. The fluorescence intensity of the stained samples was detected by an Olympus FV10i confocal microscope.

E. faecalis ATCC 29212 = experiment: MIC determination; type: cell-based, Enterococcus faecalis; details: Gram-positive E. faecalis ATCC 29212, Mueller Hinton Broth
Method: as §1

[2] = direct redox reaction of the Cu(II) complexes with GSH (UV–vis, anaerobic); type: physicochemical; details: Cu(II) complex (25 µM) of the named ligand with GSH (1.25 mM), pH 7.4, anaerobic, 30% (v/v) DMSO/H2O, 25.0 °C
Method: The redox reaction of the Cu(II) complexes with GSH and ascorbic acid was studied at 25.0 ± 0.1 °C, at pH 7.40 (10 mM HEPES with 0.1 M KCl) on an Agilent Cary 8454 diode array spectrophotometer using a special, tightly closed tandem cuvette (Hellma Tandem Cell, 238-QS). The complex and the reducing agent were separated until the reaction was triggered. Both isolated pockets of the tandem cuvette were completely deoxygenated by bubbling argon for 10 min before mixing the reactants. Spectra were recorded before and then immediately after the mixing, and changes were followed till no further absorbance change was observed. The stock solutions of the reducing agents and the complexes were freshly prepared every day.
During the calculations, the absorbance (A)−time (t) curves were fitted and analyzed at the λmax of the complex. (A0 − Afinal) × e ^(−a×t) + Afinal equation was used where A0, Afinal and a parameters were refined and accepted at the minimal value of the weighted sum of squared residuals (difference between the measured and calculated absorbance values) at the given wavelength. Then observed rate constants (kobs) of the redox reaction were obtained from the data points of the simulated absorbance–time curves as the slope of the ln(A/A0) versus t plots.

[3] = test system: HCT-116 colon cancer cell line; design: method as in doi:10.1039/D0NJ01070G, PMID 34453218, PMID 33951554; details: cited from earlier work
[4] = type: physicochemical; details: for logβ [CuLH−1] / logβ [CuL]+: Cu(II) complex of the named ligand, 30% (v/v) DMSO/H2O, T = 25.0 °C, I = 0.1 M (KCl); for pCu5.0: calculated at pH 5.0, cCu(II) = 20 µM; for pCu5.0 / pCu6.0 / pCu7.4: cligand = 20 µM; for pCu6.0: estimated at pH 6.0, cCu(II) = 20 µM; for pCu7.4: estimated at pH 7.4, cCu(II) = 20 µM
Method: (§4) An Orion 710A pH-meter equipped with a Metrohm combined electrode (type 6.0234.100) and a Metrohm 665 Dosimat burette were used for the UV–vis titrations at 25.0 ± 0.1 °C. Ionic strength of 0.10 M (KCl) was used to keep the activity coefficients constant. The titrations were performed with carbonate-free KOH solution of known concentration (0.10 M) with 30% (v/v) DMSO content. […] The average water ionization constant (pKw) is 14.54 ± 0.05 in the 30% (v/v) DMSO/H2O mixture. Argon was always passed over the solutions during the titrations. An Agilent Cary 8454 diode array spectrophotometer was used to record the UV–vis spectra at an interval of 200–800 nm. The path length was 2 cm. Spectrophotometric titrations were performed using a 0.1 M KOH titrant solution with 30% (v/v) DMSO on samples with 30% (v/v) DMSO containing HCl, KCl and the ligand at 20 μM concentration in the pH range 2.0–12.5 in the absence or in the presence of 1 or 0.5 equiv. Cu(II) ions. Proton dissociation constants (Ka) of the TSC ligands, the overall stability constants (β) of the Cu(II) complexes and the UV–vis spectra of the individual species were calculated by the computer program PSEQUAD [41] as was done in our previous works.

physchem = type: physicochemical
Method: as §4

[5] = cited from earlier work; for logβ [CuLH−1] / logβ [CuL]+: 30% (v/v) DMSO/H2O, T = 25.0 °C, I = 0.1 M (KCl); for pCu7.4: pH 7.4, cCu(II) = 20 µM, cligand = 20 µM
[6] = cited from earlier work
[7] = DPPH free radical scavenging assay; details: for % Scavenging Effect: DPPH:compound = 1:1 ratio after 30 min, ethanol; for IC50: in ethanol, T = 25 °C, cDPPH = 50 µM, ccompound = 5−50 µM
Method: The DPPH (Sigma-Aldrich) free radical scavenging capacity was studied at 25.0 ± 0.1 °C on an Agilent Cary 3500 spectrophotometer with tightly closed tandem cuvette according to our approach with some modifications. The stock solution of DPPH (100 µM) was prepared in ethanol, and 0.5 mL of this solution was added to one pocket of the cuvette and 0.5 mL of the tested compound in different concentrations in ethanol was added to another. The final concentration of the studied compounds was in the range 5–50 µM, where for DPPH concentration, it was always 50 µM. A standard compound Trolox (Sigma-Aldrich) was used as a positive control. The percentage of the antioxidant activity (AA), IC50 values (the concentration of compound at which it reduced 50% of DPPH) and Trolox equivalent antioxidant capacity (TEAC) were calculated.

[8] = Cu(II) complex (25 µM) with GSH (1.25 mM), pH 7.4, anaerobic; cited from earlier work

In the case of `[Cl][Cu][Cl]` [CuCl2, reference compound], the MIC (S. aureus ATCC 25928) is reported as >100 µM, the IC50 (A549) is reported as > 20 µM and the “effect on cell viability (in words)” value (A549) is reported as “No toxic effect”. For the same compound, the IC50 (MCF-7 KCR; 24 h incubation time) was > 20 µM, the “effect on cell viability (in words)” value (MCF-7 KCR) was “No toxic effect” and the IC50 (DU-145) was > 20 µM. For the same compound, the “effect on cell viability (in words)” value (DU-145) was “No toxic effect”, the IC50 (MCF-7) was > 20 µM and the “effect on cell viability (in words)” value (MCF-7) was “No toxic effect”. The “DNA double-strand breaks (γH2AX) vs untreated control cells” value [1] was “None of these treatments caused a higher degree of DNA damage” and the MIC (E. faecalis ATCC 29212) was >100 µM.
In the case of `CN(C)C(=S)NN=Cc1cc2c(cc1O)CCC1C2CCC2(C)C(=O)CCC12` (stereo not drawn) [Me2-estrone-TSC, reference compound], the kobs [2] is given as 0.05 ^4 min^−1, the IC50 [3] is given as 21 µM and the “pKa [CuL]+” value [4] is given as 3.92 ^4. The “logβ [CuLH−1]” value [4] was 9.44 ± 0.07 ^4, the “logβ [CuL]+” value [4] was 13.36 ± 0.08 ^4 and the pCu5.0 [4] was 8.0. For the same compound, the pCu6.0 [4] was 9.7, the pCu7.4 [4] was 12.5 ^4 and the pKa (physchem) was 9.02 ± 0.03 ^4.
In the case of `CNC(=S)NN=Cc1cc2c(cc1O)CCC1C2CCC2(C)C(=O)CCC12` (stereo not drawn) [Me-estrone-TSC], the “logβ [CuLH−1]” value [5] is given as 9.66 ^3, the “logβ [CuL]+” value [5] is given as 13.64 ^3 and the pCu7.4 [5] is given as 11.9 ^3. The kobs [2] was 0.05 ^4 min^−1, the IC50 [3] was 25 µM and the pCu5.0 [4] was 7.7. For the same compound, the pCu6.0 [4] was 9.2.
In the case of `NC(=O)N/N=C/c1ccccc1O` [SSC], the pKa ([6]; salicylaldehyde SC) is given as 9.30.
For `NC(=S)N/N=C/c1ccccc1O` [STSC, salicylaldehyde TSC, reference compound], the “TEAC (Trolox equivalent antioxidant capacity)” value ([7]; DPPH assay in ethanol, 25 °C) was 0.6, the “% Scavenging Effect” value ([7]; 25 °C) was 23.4% and the IC50 [7] was 19 µM. For the same compound, the pKa ([6]; salicylaldehyde TSC) was 8.84.
For `C[C@]12CC[C@@H]3c4cc(C=NNC(N)=O)c(O)cc4CC[C@H]3[C@@H]1CCC2O` (stereo partly drawn) [estradiol-SC, 2-[(3,17 Dihydroxy-estra-1,3,5(10)-triene-2-yl)methylene]Hydrazine-1-carboxamide], the “% Scavenging Effect” value ([7]; 25 °C) was 6.5%, the IC50 [7] was > 50 µM and the MIC (S. aureus ATCC 25928) was 50 µM (≈ 17.9 µg/mL). For the same compound, the MIC (S. aureus ATCC 25928; Staphylococcus aureus, ATCC25928) was 50 µM (≈ 17.9 µg/mL), the kobs [2] was “fast reaction” and the IC50 (A549; Homo sapiens) was > 20 µM. The “effect on cell viability (in words)” value (A549) was “only slightly toxic”, the IC50 (MCF-7 KCR; Homo sapiens, MCF7, 24 h incubation time) was > 20 µM and the “effect on cell viability (in words)” value (MCF-7 KCR) was “only slightly toxic”. The “effect on cell viability (in words)” value (DU-145) was “neither the estradiol-SC nor the Cu(II)-estradiol-SC complex exhibit any harmful effect”, the IC50 (DU-145; Homo sapiens) was > 20 µM and the IC50 (MCF-7; Homo sapiens, MCF7) was > 20 µM. The “effect on cell viability (in words)” value (MCF-7) was “neither the estradiol-SC nor the Cu(II)-estradiol-SC complex exhibit any harmful effect”, the melting point was 238 °C and the “pKa [CuL]+” value [4] was 6.48. For the same compound, the “logβ [CuLH−1]” value [4] was 5.16 ± 0.03, the “logβ [CuL]+” value [4] was 11.63 ± 0.03 and the pCu5.0 [4] was 5.7. For the same compound, the pCu6.0 [4] was 6.3, the pCu7.4 [4] was 7.8 and the pKa (physchem) was 10.02 ± 0.03. For the same compound, the MIC (E. faecalis ATCC 29212; Enterococcus faecalis, ATCC29212) was > 100 µM.
In the case of `CC12CCC3c4cc(C=NNC(N)=O)c(O)cc4CCC3C1CCC2=O` (stereo not drawn) [estrone-SC], the “logβ [CuLH−1]” value [5] is listed as 4.82 ^1, the “logβ [CuL]+” value [5] is listed as 11.26 ^1 and the pCu7.4 [5] is listed as 7.5 ^1. The pCu5.0 [4] was 5.8, the pCu6.0 [4] was 6.3 and the kobs [8] was “fast reaction ^1”.
